Experimental data published in US7371780B2, “Use of calphostin C to treat drug-resistant tumor cells” (priority 2003, dated 2008).

Columns and labels:
[1] = system: caspase-8, PARP and cytochrome C in MCF-7 cells; experiment: Immunoblotting of apoptosis markers, MCF-7; assay type: cell-based, human
Experimental: (§1) For preparation of mitochondrial and cytoplasmic cellular fractions, MCF-7, MCF-7TAX, and MCF-7DOX cells were grown in a monolayer to 70-90% confluence on 10 cm tissue culture plates. Twenty-four hours prior to extraction, the cells were treated with 50 nM light-activated calphostin C as described above. After this treatment, the cells were trypsinized, centrifuged at 1000 rpm in a Beckman GP centrifuge and washed with PBS. To the resulting cell pellet, 1 ml of ice-cold homogenization (HM) buffer was added. This buffer consisted of 85.55 g sucrose, 1.406 g MOPS, 0.292 g EDTA, and 1 ml ethanol per liter of solution, with a final pH of 7.2. Prior to use, 0.2 ml of 0.1 M PMSF, 1 Complete™ protease inhibitor tablet (Roche Diagnostics, Laval, QC), and 20 μl of 1 M DTT was added for 100 ml of HM buffer. Cells were then lysed 10 times by homogenization in a 2 ml dounce homogenizer. Nuclei in the lysate were then pelleted by centrifugation in a microfuge tube at 70 g for 10 minutes at 4° C. and the supernatant carefully removed. The supernatant was clarified by centrifugation at 1950 g for 10 minutes at 4° C. and the pellet (containing mitochondria) was resuspended in 50 μl of HM buffer. The remaining clarified supernatant was deemed the cytoplasmic fraction. […]

[2] = system: caspase-8, PARP and cytochrome C in MCF-7TAX cells; experiment: Immunoblotting of apoptosis markers, MCF-7TAX; assay type: cell-based, human
Experimental: as §1

[3] = system: caspase-8, PARP and cytochrome C in MCF-7DOX cells; experiment: Immunoblotting of apoptosis markers, MCF-7DOX; assay type: cell-based, human
Experimental: as §1

[4] = system: MDA-MB231 human breast cancer cells; experiment: Death and cytoplasmic vacuolization, MDA-MB231; assay type: cell-based; settings: data not shown
[5] = light-activated calphostin C, whole cell extracts
[6] = mitochondrial and cytoplasmic fractions

COc1c(C[C@@H](C)OC(=O)Oc2ccc(O)cc2)c2c3c(C[C@@H](C)OC(=O)c4ccccc4)c(OC)c(=O)c4c(O)cc(OC)c(c5c(OC)cc(O)c(c1=O)c52)c43 [calphostin C]
caspase-8 and PARP cleavage (protein levels) [1, 5]: did not result in any change | release of cytochrome C from mitochondria [1, 6]: no clear evidence for the release of cytochrome C | caspase-8 and PARP cleavage (protein levels) [2, 5]: did not result in any change | release of cytochrome C from mitochondria [2, 6]: no clear evidence for the release of cytochrome C | caspase-8 and PARP cleavage (protein levels) [3, 5]: did not result in any change | release of cytochrome C from mitochondria [3, 6]: no clear evidence for the release of cytochrome C | induction of death and cytoplasmic vacuolization [4]: induce both death and cytoplasmic vacuolization
